Laboratory results: patent US20110257146A1, “Method of Treating Kcnq Related Disorders Using Organozinc Compounds” (The johns Hopkins University, priority 2006, published 2011)
Several values for one entry are separate records, joined by “and”; a condition that tells them apart may be missing. Identical values can stand only once.

Tests used:
KCNQ2/3 heteromultimers = molecular target: T1, KCNQ2/3 heteromultimers (Rattus norvegicus, UniProt O88943+O88944); experiment: Whole-cell voltage clamp of CHO cells expressing KCNQ2/3 heteromultimers; assay type: cell-based
T1 construct: expressed in transfected cells
Procedure: (§1) Cell culture and transient transfection—Chinese Hamster Ovary (CHO) cells were grown in 50/50 DMEM/F12 (Cellgro) with 10% FBS (Gibco), 100 U/ml penicillin (Cellgro), 100 μg/ml streptomycin (Cellgro) and 2 mM L-glutamine (Gibco). At 24 hours before transfection, cells were split and plated in 60 mm dishes and were transfected with Lipofectamine2000™ reagent (Invitrogen) according to the manufacturer's instruction. At 24 hours after transfection, cells were split and re-plated onto coverslips coated with poly-L-lysine (Sigma). Plasmid expressing CD4 cDNA as a marker was cotransfected with the channel cDNAs of hKCNQ1 (from Dr. Michael Sanguinetti), hKCNQ4 (from Dr. Vitya Vardanyan), rKCNQ2, rKCNQ3, and hKCNQ5 (from Drs. David McKinnon, Mark Shapiro, and Thomas Jentsch). Prior to recording, anti-CD4 Dynabeads (Dynal. Biotech. Inc.) were added into the medium to allow for identification of the transfected cells. Stable lines expressing Kv2.1, hERG, and Kv4.2 were generated by standard protocols using pcDNA3.1 and maintained at complete medium supplemented with 500 μg/ml G418. The N-type calcium channel stable line was a kind gift from Drs. Diane Lipscombe and David Yue.
(§2) Electrophysiological Recording—Standard whole-cell recording was used. Pipettes were pulled from borosilicate glass capillaries (TW150-4, World Precision Instruments, Sarasota, Fla.). When filled with the intracellular solution, the pipettes have resistances of […]. During the recording, constant perfusion of extracellular solution was maintained using a BPS perfusion system (ALA, Westbury, N.Y.). Pipette solution contained (mM): KCl 145, MgCl2 1, EGTA 5, HEPES 10, MgATP 5 (pH 7.3); extracellular solution contained (mM): NaCl 140, KCl 3, CaCl2 2, MgCl2 1.5, HEPES 10, glucose 10 (pH 7.4). Current and voltage were recorded using an Axopatch-200A amplifier, filtered at 1 kHz and digitized using a DigiData 1322A with pClamp 9.2 software (Axon Instruments, Foster City, Calif.). Series resistance compensation was also used and set to 60-80%.
(§3) Data and Statistical Analysis—Patch-clamp data were preprocessed using Clampfit 9.2 (Axon Instruments, Foster City, Calif.) and then analyzed in Origin 7 (OriginLab, Northampton, Mass.). The activation curve was fitted by the Boltzmann equation: G=(Gmax−Gmin)/[1+exp[(V−V1/2)/S]]+Gmin, where Gmax is the maximum conductance, Gmin is the minimum conductance, V1/2 is the voltage for half of the total numbers of channels to open, and S is the slope factor. The dose response curve was fitted by the Hill equation: E=Emax/(1+(EC50/C)^P), where Emax is the maximum response, C is the drug concentration, EC50 is the drug concentration producing half of the maximum response, and P is the Hill coefficient. The deactivation trace was fitted by the standard exponential equation: I(t)=ΣIi*exp(−t/τi), where I is the current, t is the time and τ is the time constant. Data are presented as means±SE. Significance was estimated using paired two-tailed Student's t-test.

KCNQ4 = molecular target: T2, KCNQ4 (Homo sapiens, UniProt P56696); experiment: Whole-cell voltage clamp of CHO cells expressing KCNQ4; assay type: cell-based; conditions: 10 μM ZnPy, extracellular
T2 construct: expressed in transfected cells; host or cells: CHO cells
Procedure: as §1, with “The N-type calcium channel stable line was a kind gift from Drs. Diane Lipscombe and David Yue.” left out
(§4) Electrophysiological Recording—Standard whole-cell recording was used. […] Current and voltage were recorded using an Axopatch-200A amplifier, filtered at 1 kHz and digitized using a DigiData 1322A with pClamp 9.2 software (Axon Instruments, Foster City, Calif.). […]

[1] = molecular target: T3, human ether-a-go-go related gene (hERG) (Homo sapiens, UniProt Q12809); assay type: cell-based
T3 construct: expressed in transfected cells
Procedure: as §1, with “The N-type calcium channel stable line was a kind gift from Drs. Diane Lipscombe and David Yue.” left out
as §4

N-type calcium channel = molecular target: T4, N-type calcium channel (Homo sapiens, UniProt Q00975); experiment: Channel activity in N-type calcium channel stable line; assay type: cell-based
T4 construct: expressed in transfected cells; Diane Lipscombe and David Yue
Procedure: as §1, with “The N-type calcium channel stable line was a kind gift from Drs. Diane Lipscombe and David Yue.” left out
as §4

KCNQ2 L275A = molecular target: T5, KCNQ2 L275A (Rattus norvegicus, UniProt O88943, L275A); experiment: Whole-cell recording of KCNQ2 L275A mutant; assay type: cell-based
T5 construct: expressed in transfected cells
From the text: FIG. 9. KCNQ2 point mutants selectively lose ZnPy sensitivity. […] Each mutation site was indicated based on the predicted transmembrane regions. Dashed line indicates the potentiation level of wt KCNQ2 channel in the absence of ZnPy. […] C. Modeling of the S5-pore-S6 region of KCNQ2.
Mutagenesis—Starting from KCNQ cDNAs, the KCNQ2 point mutants were constructed by recombinant PCR and verified by sequencing.
as §2

[2] = Rat model of severe global ischemia; conditions: in vivo
[3] = Mouse model of severe focal ischemia; conditions: in vivo
[4] = tested on: lymphocytic leukemia cells; conditions: micromolar concentrations; cited from earlier work
KCNQ2 [5] = molecular target: T6, KCNQ2 (Rattus norvegicus, UniProt O88943); experiment: Whole-cell voltage clamp of CHO cells expressing KCNQ2; assay type: cell-based; design: expressed in transfected cells; host or cells: CHO cells
Procedure: as §1, §2, §3

KCNQ2 [6] = molecular target: T6, KCNQ2; experiment: Single channel outside-out patch recording of KCNQ2; assay type: cell-based; design: expressed in transfected cells; host or cells: CHO cells
Procedure: For single channel recording procedure, outside-out patch recording was used. The pipettes had resistances of 7-15 MΩ when filled with the intracellular solution of the following composition (mM): KCl 145, MgCl2 1, EGTA 5, HEPES 10, MgATP 5 (pH 7.3). Extracellular solution contained (mM): NaCl 150, KCl 5, CaCl2 2, MgCl2 1, HEPES 10, glucose 10 (pH 7.4). Current and voltage were recorded using an Axopatch-200B amplifier, sample at 4 kHz and filtered at 200 Hz, and digitized using a DigiData 1322A with pClamp 9.2 software (Axon Instruments, Foster City, Calif.).
The open probability (Po) and single channel current (i) were calculated by fitting all-point histograms with single- or multi-Gaussian curves. The ratio of the area under the fitted ‘open’ Gaussian to the total area under the entire Gaussian was taken as Po, and the difference between the fitted “closed” and “open” peaks was taken as i, single channel conductance (γ) was calculated by the equation: γ=i/(V−V5).

T3 sequence (Q12809 whole entry): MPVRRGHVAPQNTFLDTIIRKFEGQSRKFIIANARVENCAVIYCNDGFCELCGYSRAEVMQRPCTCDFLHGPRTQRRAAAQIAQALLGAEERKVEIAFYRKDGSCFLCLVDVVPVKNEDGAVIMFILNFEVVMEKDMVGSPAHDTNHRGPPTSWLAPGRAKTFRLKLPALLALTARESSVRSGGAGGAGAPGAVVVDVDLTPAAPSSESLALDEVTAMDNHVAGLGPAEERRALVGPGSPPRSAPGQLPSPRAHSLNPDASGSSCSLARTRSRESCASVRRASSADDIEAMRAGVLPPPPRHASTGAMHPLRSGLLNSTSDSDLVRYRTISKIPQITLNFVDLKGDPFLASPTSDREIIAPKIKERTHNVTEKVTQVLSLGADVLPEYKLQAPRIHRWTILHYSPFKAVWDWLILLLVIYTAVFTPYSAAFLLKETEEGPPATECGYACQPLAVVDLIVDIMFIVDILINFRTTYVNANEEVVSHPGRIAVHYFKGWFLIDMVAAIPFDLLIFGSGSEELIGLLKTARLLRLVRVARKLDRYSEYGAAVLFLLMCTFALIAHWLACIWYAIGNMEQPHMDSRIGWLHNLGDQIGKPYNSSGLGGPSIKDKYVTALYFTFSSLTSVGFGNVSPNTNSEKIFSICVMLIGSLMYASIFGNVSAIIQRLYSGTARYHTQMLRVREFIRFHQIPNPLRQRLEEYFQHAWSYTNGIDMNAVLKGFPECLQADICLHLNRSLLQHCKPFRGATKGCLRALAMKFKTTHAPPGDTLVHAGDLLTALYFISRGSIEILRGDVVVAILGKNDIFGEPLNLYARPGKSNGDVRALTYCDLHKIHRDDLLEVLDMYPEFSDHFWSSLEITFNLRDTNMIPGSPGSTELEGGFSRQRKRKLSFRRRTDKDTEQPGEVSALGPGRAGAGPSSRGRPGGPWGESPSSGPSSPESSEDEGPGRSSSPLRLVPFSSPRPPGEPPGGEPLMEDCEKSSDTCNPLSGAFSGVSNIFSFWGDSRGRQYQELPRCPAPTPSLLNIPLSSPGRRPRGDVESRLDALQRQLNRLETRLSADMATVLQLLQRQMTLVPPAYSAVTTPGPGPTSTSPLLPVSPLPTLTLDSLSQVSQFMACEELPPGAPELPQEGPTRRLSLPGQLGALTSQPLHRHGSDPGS
T4 sequence (Q00975 whole entry): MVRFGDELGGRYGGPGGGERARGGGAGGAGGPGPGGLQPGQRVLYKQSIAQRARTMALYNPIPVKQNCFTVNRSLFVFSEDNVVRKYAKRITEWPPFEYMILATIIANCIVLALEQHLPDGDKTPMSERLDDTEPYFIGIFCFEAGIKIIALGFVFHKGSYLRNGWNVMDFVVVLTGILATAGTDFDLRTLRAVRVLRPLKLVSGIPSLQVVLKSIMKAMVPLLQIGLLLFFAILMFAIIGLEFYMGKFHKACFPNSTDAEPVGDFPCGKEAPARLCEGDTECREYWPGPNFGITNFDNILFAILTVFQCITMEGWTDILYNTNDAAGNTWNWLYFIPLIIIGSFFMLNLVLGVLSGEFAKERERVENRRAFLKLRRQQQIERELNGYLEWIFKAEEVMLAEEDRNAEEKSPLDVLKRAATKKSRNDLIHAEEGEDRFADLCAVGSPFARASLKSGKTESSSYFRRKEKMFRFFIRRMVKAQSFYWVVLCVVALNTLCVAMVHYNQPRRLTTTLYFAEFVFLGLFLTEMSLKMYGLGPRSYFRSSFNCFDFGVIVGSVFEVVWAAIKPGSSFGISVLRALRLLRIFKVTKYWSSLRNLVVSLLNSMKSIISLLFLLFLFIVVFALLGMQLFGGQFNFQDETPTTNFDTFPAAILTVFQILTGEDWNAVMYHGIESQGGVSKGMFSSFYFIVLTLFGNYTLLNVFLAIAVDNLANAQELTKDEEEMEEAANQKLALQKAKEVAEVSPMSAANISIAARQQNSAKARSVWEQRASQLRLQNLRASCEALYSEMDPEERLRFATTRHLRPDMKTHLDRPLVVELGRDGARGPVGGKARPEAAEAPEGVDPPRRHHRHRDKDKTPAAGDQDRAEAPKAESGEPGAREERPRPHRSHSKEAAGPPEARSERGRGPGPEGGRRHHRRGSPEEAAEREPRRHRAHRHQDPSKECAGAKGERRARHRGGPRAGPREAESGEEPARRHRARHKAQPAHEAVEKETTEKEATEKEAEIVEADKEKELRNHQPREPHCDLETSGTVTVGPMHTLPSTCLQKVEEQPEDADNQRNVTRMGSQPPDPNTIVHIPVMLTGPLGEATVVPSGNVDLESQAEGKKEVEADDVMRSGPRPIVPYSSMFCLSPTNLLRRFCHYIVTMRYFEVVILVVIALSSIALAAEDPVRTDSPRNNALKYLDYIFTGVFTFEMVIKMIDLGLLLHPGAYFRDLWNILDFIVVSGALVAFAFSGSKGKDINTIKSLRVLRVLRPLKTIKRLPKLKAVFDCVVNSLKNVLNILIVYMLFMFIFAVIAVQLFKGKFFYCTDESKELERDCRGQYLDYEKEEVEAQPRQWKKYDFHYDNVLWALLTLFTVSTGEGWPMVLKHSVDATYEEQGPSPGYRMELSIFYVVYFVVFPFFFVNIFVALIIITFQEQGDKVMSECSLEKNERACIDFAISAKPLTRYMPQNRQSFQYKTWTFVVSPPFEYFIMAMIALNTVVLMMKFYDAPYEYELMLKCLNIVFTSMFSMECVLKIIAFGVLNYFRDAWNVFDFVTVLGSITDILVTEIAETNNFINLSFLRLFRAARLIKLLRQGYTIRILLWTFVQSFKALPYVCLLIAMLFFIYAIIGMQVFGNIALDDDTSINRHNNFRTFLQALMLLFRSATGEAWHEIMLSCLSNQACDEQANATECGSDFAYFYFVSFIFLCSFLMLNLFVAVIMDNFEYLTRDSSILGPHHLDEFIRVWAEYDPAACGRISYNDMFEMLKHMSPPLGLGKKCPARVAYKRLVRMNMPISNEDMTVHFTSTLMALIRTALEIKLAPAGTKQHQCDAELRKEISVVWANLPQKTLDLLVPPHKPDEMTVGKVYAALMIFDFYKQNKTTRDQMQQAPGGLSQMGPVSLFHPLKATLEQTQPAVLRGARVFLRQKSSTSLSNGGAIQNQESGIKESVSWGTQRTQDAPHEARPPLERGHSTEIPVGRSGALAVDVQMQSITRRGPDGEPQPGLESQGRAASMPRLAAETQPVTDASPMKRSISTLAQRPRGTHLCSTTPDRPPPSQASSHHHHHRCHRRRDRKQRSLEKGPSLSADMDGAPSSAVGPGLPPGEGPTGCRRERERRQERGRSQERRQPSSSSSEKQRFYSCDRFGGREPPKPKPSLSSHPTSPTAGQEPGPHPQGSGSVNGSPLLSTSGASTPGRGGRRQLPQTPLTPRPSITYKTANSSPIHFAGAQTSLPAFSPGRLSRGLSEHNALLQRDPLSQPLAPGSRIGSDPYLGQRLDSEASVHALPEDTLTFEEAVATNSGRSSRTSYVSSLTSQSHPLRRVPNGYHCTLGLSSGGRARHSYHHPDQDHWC
T4 sequence (P54284 whole entry partner): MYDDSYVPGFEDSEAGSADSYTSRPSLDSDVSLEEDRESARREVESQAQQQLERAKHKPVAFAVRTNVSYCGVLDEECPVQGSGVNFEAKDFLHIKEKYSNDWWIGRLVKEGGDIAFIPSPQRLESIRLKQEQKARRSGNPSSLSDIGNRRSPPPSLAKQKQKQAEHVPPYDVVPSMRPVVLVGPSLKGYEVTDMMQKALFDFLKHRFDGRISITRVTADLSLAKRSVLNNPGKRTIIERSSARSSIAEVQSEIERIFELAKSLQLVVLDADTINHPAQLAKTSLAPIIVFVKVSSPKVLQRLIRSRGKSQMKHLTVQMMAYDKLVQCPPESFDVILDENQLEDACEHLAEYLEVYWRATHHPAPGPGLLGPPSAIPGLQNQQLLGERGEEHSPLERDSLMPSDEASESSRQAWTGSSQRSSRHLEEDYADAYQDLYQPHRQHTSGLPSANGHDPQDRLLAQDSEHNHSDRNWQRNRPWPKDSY
T4 sequence (P54289 25-946 partner limits assumed): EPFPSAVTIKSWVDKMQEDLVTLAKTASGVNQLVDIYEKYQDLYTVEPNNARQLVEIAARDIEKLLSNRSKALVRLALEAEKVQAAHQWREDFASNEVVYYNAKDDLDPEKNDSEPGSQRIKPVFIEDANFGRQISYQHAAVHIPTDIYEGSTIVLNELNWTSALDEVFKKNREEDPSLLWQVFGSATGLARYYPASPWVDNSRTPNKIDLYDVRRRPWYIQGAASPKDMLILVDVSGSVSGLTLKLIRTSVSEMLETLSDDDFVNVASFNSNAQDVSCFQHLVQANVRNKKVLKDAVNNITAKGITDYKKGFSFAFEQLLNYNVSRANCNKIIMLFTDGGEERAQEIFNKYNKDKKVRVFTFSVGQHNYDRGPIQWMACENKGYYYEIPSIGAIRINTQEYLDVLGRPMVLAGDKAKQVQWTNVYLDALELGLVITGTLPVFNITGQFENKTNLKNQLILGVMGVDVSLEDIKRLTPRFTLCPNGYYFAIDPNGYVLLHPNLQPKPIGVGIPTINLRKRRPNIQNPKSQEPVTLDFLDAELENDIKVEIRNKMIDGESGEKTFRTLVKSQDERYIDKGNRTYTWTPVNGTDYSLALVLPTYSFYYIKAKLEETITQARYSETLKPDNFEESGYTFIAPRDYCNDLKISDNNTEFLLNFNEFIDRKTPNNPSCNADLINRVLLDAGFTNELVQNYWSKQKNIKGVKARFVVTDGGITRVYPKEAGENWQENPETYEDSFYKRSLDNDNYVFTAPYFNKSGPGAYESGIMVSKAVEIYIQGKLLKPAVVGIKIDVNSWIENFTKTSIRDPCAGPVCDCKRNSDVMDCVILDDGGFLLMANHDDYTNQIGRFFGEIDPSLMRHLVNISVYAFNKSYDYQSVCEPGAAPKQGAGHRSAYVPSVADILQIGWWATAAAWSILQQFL
T4 sequence (P54289 947-1103 partner limits assumed): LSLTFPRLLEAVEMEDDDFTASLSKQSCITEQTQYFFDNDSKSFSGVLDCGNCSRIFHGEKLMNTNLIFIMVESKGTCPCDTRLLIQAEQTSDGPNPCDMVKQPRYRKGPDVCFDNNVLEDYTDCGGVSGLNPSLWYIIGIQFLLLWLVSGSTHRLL

S=c1ccccn1[O][Zn][O]n1ccccc1=S [ZnPy, Zinc Pyrithione]
hyperpolarizing shift of V1/2 (KCNQ2/3 heteromultimers; 10 μM ZnPy): 24.4±0.8 mV
V1/2 in presence of compound (KCNQ2/3 heteromultimers; 10 μM ZnPy, control −20.3±0.8 mV): −44.7±1.9 mV
activation time constant (KCNQ2/3 heteromultimers; +50 mV, with ZnPy, control 75.6±4.9): 157.8±23.5 milliseconds
Hill coefficient of dose dependent curve (KCNQ2/3 heteromultimers; KCNQ2/3): 1.4
EC50 (KCNQ2/3 heteromultimers; KCNQ2/3 heteromultimers, read-out: EC50 of midpoint of activation voltage (V1/2) shift): 2400 ± 400 nM
deactivation time constant (KCNQ2/3 heteromultimers; −120 mV, 10 μM ZnPy, control 12.4±0.7): 41.9±6.4 milliseconds
effect on channel activity (KCNQ4): potentiated
potentiation of channel activity [1]: did not potentiate
potentiation of channel activity (N-type calcium channel): did not potentiate
change in V1/2 caused by ZnPy (KCNQ2 L275A): significant reduction on changes in V1/2
neuroprotection [2]: protection against cell loss in the selectively vulnerable zone of the CA1 region of the hippocampus
neuroprotection [3]: significantly decreasing brain infarct volume and neurological deficit
anti-apoptotic effect in vitro [4]: protected lymphocytic leukemia cells against colchicine-induced apoptosis
effect on membrane potential of CHO cells expressing KCNQ2 (KCNQ2 [5]; 10 μM ZnPy): significant hyperpolarization
left (hyperpolarizing) shift of V1/2 (KCNQ2 [5]; 10 μM ZnPy): 25.5±1.5 mV
effect on TEA-blocked KCNQ2 current (KCNQ2 [5]; 10 μM ZnPy extracellular in presence of 20 mM TEA): unable to reverse the TEA inhibition
potentiation on intracellular application (KCNQ2 [5]; 10 μM ZnPy in pipette solution, with or without EGTA): induced no potentiation
V1/2 on internal perfusion (KCNQ2 [5]; 10 μM ZnPy through recording pipette, 0 to 12 minutes): consistent and identical to that of KCNQ2 control
effect on channel activity (KCNQ2 [5]; 10 μM ZnPy, extracellular): potentiated
V1/2 (voltage required for half maximal activation) in presence of compound (KCNQ2 [5]; 10 μM ZnPy, control −18.9±0.6 mV): −44.4±0.9 mV
activation time constant (KCNQ2 [5]; +50 mV, with ZnPy, control 163.5±13.7): 293.1±11.2 milliseconds
Hill coefficient of dose dependent curve (KCNQ2 [5]; KCNQ2): 1.8
EC50 (KCNQ2 [5]; KCNQ2 alone, read-out: EC50 of midpoint of activation voltage (V1/2) shift): 1500 ± 300 nM
deactivation time constant (KCNQ2 [5]; −120 mV, 10 μM ZnPy, control 14.1±0.6): 54.4±0.9 milliseconds
single channel open probability (Po) (KCNQ2 [6]; 0 mV, 10 μM ZnPy, control 0.13): 0.77±0.06 and 0.77
fitted unitary current amplitude (KCNQ2 [6]; 0 mV, 10 μM ZnPy, control 0.51 pA): 0.52 pA
fold increase in Po (KCNQ2 [6]; 10 μM ZnPy): 5.9 fold
single channel conductance (KCNQ2 [6]; in the presence or absence of ZnPy): 6.6±0.15 pS
